From ChEMBL document CHEMBL1156464, “Unique antiviral mechanism discovered in anti-hepatitis B virus research with a natural product analogue” (Proc Natl Acad Sci U S A, 2007)
Blank lines part the entries; values can stand above or below the compound they belong to. Calls of active or inactive are those of the source. No cut-off for these calls is given here.

How the values were obtained:
Human alphaherpesvirus 1 = assay: Antiviral activity against HSV1; type: functional, organism-based
Hepatitis B virus [1] = assay: Inhibition of HBV promoter in human HepG2(2.2.15) cells by luciferase reporter gene assay; type: functional, organism-based
Human gammaherpesvirus 4 = assay: Antiviral activity against Epstein-Barr virus; type: functional, organism-based
Hepatitis B virus [2] = assay: Inhibition of HBV promoter in human HepG2 cells by luciferase reporter gene assay; type: functional, organism-based
[3] = tested on: Human immunodeficiency virus; assay: Antiviral activity against HIV; type: functional, organism-based; conditions: Human immunodeficiency virus 1
Hepatitis B virus [4] = assay: Antiviral activity against HBV assessed as inhibition of viral replication; type: functional, organism-based
Hepatitis C virus = assay: Antiviral activity against hepatitis C virus; type: functional, organism-based, Hepacivirus hominis
human papillomavirus 11 = assay: Antiviral activity against human papilloma virus 11; type: functional, organism-based
[5] = Cytotoxicity against HBV transfected human HepG2 cells by MTT assay; type: cell-based
Hepatitis B virus [6] = assay: Effect on virus RNA stability on doxycyclin-induced HBV pre genomic RNA production in Met-On-TRE HBV cells treated with 3 uM drug after doxycycline removal; type: functional, organism-based
Hepatitis B virus [7] = assay: Antiviral activity against HBV in ayw wild type HepG2(2.2.15) cells assessed as inhibition of viral DNA replication; type: functional, organism-based
Hepatitis B virus [8] = assay: Antiviral activity against HBV in human HepG2(2.2.15) cells assessed as inhibition of viral 2.4/2.1RNA replication; type: functional, organism-based
[9] = Cytotoxicity against HBV transfected human adriamycin-resistant wild type HepW10 cells by MTT assay; type: cell-based
Hepatitis B virus [10] = assay: Antiviral activity against HBV in mouse ayw wild type HBV-Met cells assessed as inhibition of viral DNA replication; type: functional, organism-based
Hepatitis B virus [11] = assay: Antiviral activity against HBV in mouse HBV-Met cells assessed as inhibition of viral 2.4/2.1RNA replication; type: functional, organism-based
Hepatitis B virus [12] = assay: Antiviral activity against HBV in human HepG2(2.2.15) cells assessed as inhibition of viral pre-genomic RNA replication; type: functional, organism-based
Hepatitis B virus [13] = assay: Antiviral activity against HBV in human HepW10 cells assessed as inhibition of viral 2.4/2.1RNA replication; type: functional, organism-based
[14] = Cytotoxicity against HBV transfected human ayw wild type HepG2(2.2.15) cells by MTT assay; type: cell-based; conditions: HBV-transfected ayw wild type HepG2(2.2.15) cells
[15] = Cytotoxicity against HBV transfected human adriamycin-resistant HepD2 cells with RTM20V and RTV180M mutation by MTT assay; type: cell-based
Hepatitis B virus [16] = assay: Antiviral activity against HBV in adriamycin-resistant wild type HepW10 cells assessed as inhibition of viral DNA replication; type: functional, organism-based
Hepatitis B virus [17] = assay: Antiviral activity against HBV in human HepW10 cells assessed as inhibition of viral pre genomic RNA replication; type: functional, organism-based
Hepatitis B virus [18] = assay: Antiviral activity against HBV in adriamycin-resistant HepD2 cells with RTM20V and RTV180M mutation assessed as inhibition of viral DNA replication; type: functional, organism-based
Hepatitis B virus [19] = assay: Antiviral activity against HBV in human HepD2 cells assessed as inhibition of viral 2.4/2.1RNA replication; type: functional, organism-based
Hepatitis B virus [20] = assay: Antiviral activity against HBV in human HepD2 cells assessed as inhibition of viral pre genomic RNA replication; type: functional, organism-based
Hepatitis B virus [21] = assay: Antiviral activity against HBV in HBV-Met cells assessed as inhibition of viral pre genomic RNA replication; type: functional, organism-based
Hepatitis B virus [22] = assay: Effect on HBV viral core protein degradation on cyclohexamide terminated cellular protein synthesis in human HepG2(2.2.15) cells at 0.3 uM; type: functional, organism-based
HepG2 2.2.15 [23] = assay: Decrease in binding of HBV promoter preC/C-EnhII to human FTF in HepG2(2.2.15) cells; type: cell-based
Hepatitis B virus [24] = assay: Decrease in HBV RNA in human HepG2 cells at 2 uM after 18 to 24 hrs by time course study; type: functional, organism-based
HepG2 [25] = assay: Decrease in binding of HBV promoter preC/C-EnhII to HNF3 in human HepG2 cells; type: cell-based
HepG2 [26] = assay: Decrease in binding of HBV promoter preC/C-EnhII to HNF4-2 in human HepG2 cells; type: cell-based
HepG2 2.2.15 [27] = assay: Decrease in binding of HBV promoter preC/C-EnhII to human HNF4-1 in HepG2(2.2.15) cells; type: cell-based
[28] = Down regulation of HNH3-alpha mRNA in human HepG2(2.2.15) cells expressing HBV at 0.3 uM by Northern blotting; type: functional, cell-based
HepG2 2.2.15 [29] = assay: Decrease in binding of HBV promoter preC/C-EnhII to human HNF4-2 in HepG2(2.2.15) cells; type: cell-based
Hepatitis B virus [30] = assay: Decrease in HBV DNA level in human HepG2 cells at 2 uM after 48 hrs by time course study; type: functional, organism-based
HepG2 [31] = assay: Decrease in binding of HBV promoter preC/C-EnhII to FTF2 in human HepG2 cells; type: cell-based
[32] = Down regulation of HNH3-beta in human HepG2(2.2.15) cells expressing HBV at 0.3 uM by Western blotting; type: functional, cell-based
Cytomegalovirus = assay: Inhibition of CMV promoter in human HepG2(2.2.15) cells by luciferase reporter gene assay after 16 to 24 hrs; type: functional, organism-based; conditions: TDE = time-dependent effect
HepG2 [33] = assay: Down regulation of HNH3-beta in human HepG2 cells expressing HBV at 0.3 uM by Western blotting; type: functional, cell-based
HepG2 [34] = assay: Decrease in binding of HBV promoter preC/C-EnhII to HNF4-1 in human HepG2 cells; type: cell-based
Hepatitis B virus [35] = assay: Effect on virus RNA stability on doxycyclin-induced HBV pre genomic RNA production in Met-On-TRE HBV cells treated with 0.3 uM drug after doxycycline removal; type: functional, organism-based
[36] = Down regulation of HNH4-alpha in human HepG2(2.2.15) cells expressing HBV at 0.3 uM by Western blotting; type: functional, cell-based
HepG2 2.2.15 [37] = assay: Decrease in binding of HBV promoter preC/C-EnhII to human HNF3 in HepG2(2.2.15) cells; type: cell-based
HepG2 [38] = assay: Down regulation of HNH4-alpha in human HepG2 cells expressing HBV at 0.3 uM by Western blotting; type: functional, cell-based
Hepatitis B virus [39] = assay: Decrease in HBV protein level in human HepG2 cells at 2 uM after 18 to 24 hrs by time course study; type: functional, organism-based

IC50 (Human alphaherpesvirus 1): 290 nM
IC50 (Hepatitis B virus [1]): 80 nM
IC50 (Human gammaherpesvirus 4): 11000 nM
IC50 (Hepatitis B virus [2]): > 1000 nM
IC50 [3]: 4000 nM
IC50 (Hepatitis B virus [4]): 80 nM
IC50 (Hepatitis C virus): 1000 nM
IC50 (human papillomavirus 11): 200 nM
SMILES: O=C1NCc2c1cc1ccc3c(c1c2-c1ccc2c(c1)OCO2)OCO3

SMILES: Nc1ccn([C@@H]2CS[C@H](CO)O2)c(=O)n1 [LAMIVUDINE]
CC50 [5]: 100000 nM
IC50 (Hepatitis B virus [1]): 80 nM
Activity (Hepatitis B virus [6]): inactive
IC50 (Hepatitis B virus [7]): 50 nM
IC50 (Hepatitis B virus [2]): > 1000 nM
Activity (Hepatitis B virus [8]): inactive
CC50 [9]: > 100000 nM
IC50 (Hepatitis B virus [10]): 200 nM
Activity (Hepatitis B virus [11]): inactive
Activity (Hepatitis B virus [12]): inactive
Activity (Hepatitis B virus [13]): inactive
CC50 [14]: > 100000 nM
CC50 [15]: > 100000 nM
IC50 (Hepatitis B virus [16]): 100 nM
Activity (Hepatitis B virus [17]): inactive
IC50 (Hepatitis B virus [18]): > 3000 nM
Activity (Hepatitis B virus [19]): inactive
Activity (Hepatitis B virus [20]): inactive
Activity (Hepatitis B virus [21]): inactive

SMILES: O=c1[nH][nH]c(=O)c2c(-c3ccc4c(c3)OCO4)c3c4c(ccc3cc12)OCO4
CC50 [5]: 29000 nM
IC50 (Human alphaherpesvirus 1): 1200 nM
IC50 (Hepatitis B virus [1]): 80 nM
Activity (Hepatitis B virus [22]): inactive
IC50 (Human gammaherpesvirus 4): > 25000 nM
IC50 (Hepatitis B virus [7]): 80 nM
IC50 (Hepatitis B virus [2]): > 1000 nM
Activity (HepG2 2.2.15 [23]): Active
Activity (Hepatitis B virus [24]): Active
IC50 (Hepatitis B virus [8]): 900 nM
CC50 [9]: 13000 nM
Activity (HepG2 [25]): inactive
IC50 (Hepatitis B virus [10]): 300 nM
Activity (HepG2 [26]): inactive
Activity (HepG2 2.2.15 [27]): Active
Activity [28]: inactive
IC50 [3]: 15000 nM
Activity (HepG2 2.2.15 [29]): Active
Activity (Hepatitis B virus [30]): Active
IC50 (Hepatitis B virus [4]): 100 nM
Activity (HepG2 [31]): Active
Activity [32]: Active
IC50 (Hepatitis C virus): 10000 nM
Activity (Cytomegalovirus): tde
IC50 (Hepatitis B virus [11]): 1000 nM
IC50 (Hepatitis B virus [12]): 300 nM
Activity (HepG2 [33]): Active
IC50 (Hepatitis B virus [13]): > 3000 nM
Activity (HepG2 [34]): inactive
Activity (Hepatitis B virus [35]): inactive
CC50 [14]: 9000 nM
CC50 [15]: 12000 nM
Activity [36]: Active
Activity (HepG2 2.2.15 [37]): Active
IC50 (Hepatitis B virus [16]): 200 nM
IC50 (Hepatitis B virus [17]): 400 nM
IC50 (human papillomavirus 11): 5800 nM
IC50 (Hepatitis B virus [18]): 30 nM
Activity (HepG2 [38]): inactive
Activity (Hepatitis B virus [39]): Active
IC50 (Hepatitis B virus [19]): 1500 nM
IC50 (Hepatitis B virus [20]): 90 nM
IC50 (Hepatitis B virus [21]): 500 nM
